# Assay results as given in patent US10093699B2, “Peptides with antimicrobial, anticancer and/or wound-healing promoting activities, pharmaceutical compositions containing the same, and use of the peptides with antimicrobial, anticancer and/or wound-healing promoting activities” (priority 2015, dated 2018).
# Where a SMILES comes first, the peptide text is derived from it. [ ]: non-standard residue; d: D form. 2Nal = N[C@@H](Cc1ccc2ccccc2c1)C(=O)O
# Assays:
# PC9 cells = assay: Cell live image (phase-contrast and immunofluorescence), PC9; type: cell-based, human; details: 12 μM, 5 minutes
# Method: PC9 and HFW cells (˜10^5 cells) were pre-seeded in 6-cm polystyrene dishes for 24 hours. Cell nuclear is labeled by 4′,6-diamidino-2-phenylindole (DAPI) with a final concentration of 10 μg/ml. After 10 minutes of incubation, the cells were washed by PBS. FITC-K4R2Nal2S1-NH2 was added to the dishes with the final concentration of 12 μM. After incubation for 5, 10, 20 minutes or 1 hour at 37° C., the cells were washed with PBS. The images of FITC-K4R2Nal2S1-NH2 in PC9 cells and HFW cells were observed using the Inverted Fluorescent Microscope Zeiss/Observer.Z1.
# To investigate the mode of actions of K4R2Nal2-S1 peptide on human cancer cell line (PC9) and human fibroblast (HFW), cells were treated with FITC-labeled K4R2-Nal2-S1. Nucleus was labeled with DAPI, and the blue signal was observed by UV exciting light. The fluorescence distribution of FITC-labeled K4R2-Nal2-S1 peptide on cell membrane was visualized by the inverted fluorescent microscope.
# [1] = test system: Gram-positive and Gram-negative bacterium; assay: Antimicrobial activity under several salt concentrations (summary in words); type: cell-based
# Method: Escherichia coli strain (ATCC 25922), Staphylococcus aureus subsp strain (ATCC 25923, methicillin-resistant), and Pseudomonas aeruginosa Migula strain (ATCC 27853, ampicillin-resistant) were used to test the antibacterial activity of the peptides. Bacteria were cultured in sterilized Mueller-Hinton (MH) culturing medium at 200 rpm and 37° C. for 8 hours.
# The antibacterial activities were determined by the standard broth microdilution method of National Committee for Clinical Laboratory Standards with the LYM broth. The LYM broth contains 5.4 mM KCl, 5.6 mM Na2HPO4, 0.5 mM MgSO4, and 1.0 mM sodium citrate. In addition, 0.4 mg of ZnCl2, 2.0 mg of FeCl3. 6H2O, 0.1 mg of CuSO4. 5H2O, 0.1 mg of MnSO4.H2O, 0.1 mg of Na2B4O7.10H2O, 700 mg of amino acid mixtures without tryptophan (Clontech), and 20 mg of L-Tryptophan were added per liter of medium. A vitamin mixture (100×, Sigma) and glucose at final concentration of 2% were also added.
# 1 μl peptide solutions (ranging from 5000 μg/ml to 78 μg/ml in serial dilution) was prepared and mixed with 99 μl inoculum (5×10^5 CFU/ml) in polypropylene 96-well plate. The turbidity at OD 600 nm was measured by ELISA plate reader (Thermo Max, Molecular Devices, Sunnyvale, Calif.). The absorbance of culture medium and inoculum suspension without peptides were used as the negative and positive control, respectively. […]
# caspase 3 in HFW cells = assay: Western blot for activated caspase 3, HFW; type: cell-based, human
# caspase 3 in PC9 = assay: Western blot for activated caspase 3, PC9; type: cell-based, human; details: 12 μM
# Method: PC9 cells were seeded in 10-cm polystyrene dishes for 48 hours. About seventy percent full of cells were treated with 12 μM K4R2Nal2S1 for 10 minutes, 1 hour or 24 hours. RPMI medium without peptide treated for 24 hours which was used as negative control.
# Cells were collected by 200 μl RIPA and protease inhibitor blended buffer. After sonication and centrifugation for 10 minutes, 13000 rpm at 4° C., supernatants (lysis of cell) were collected. Protein concentrations of cell extracts were determined by Bradford reagent. Equal amount of boiled lysates (total 50 μg) were separated on 10% acrylamide gel. The gel was transferred to PVDF membrane in electro-blot system, 300 V, […], and 80 minutes.
# The membrane was incubated in blocking buffer (5% skim milk, TBST buffer) for 1 hour at room temperature and washed in TBST buffer twice. Blocked membrane was incubated with Caspase-3 antibody (EPITOMICS, clone ID: E83-77) overnight at 4° C., washed for five times, and then incubated in secondary antibody (HRP, GeneTex catalogue number: GTX21311-01) for 1 hour at room temperature. The signals were visualized by enhanced chemiluminescence (ECL) and recorded by a detected system (ImageQuant LAS 4000 mini).
structure (smiles),measurement,setting,value
"CC(=O)N[C@@H](CCCCN)C(=O)N[C@@H](CCCCN)C(=O)N[C@@H](CCCCN)C(=O)N[C@@H](CCCCN)C(=O)N[C@@H](CCCNC(=N)N)C(=O)N[C@@H](CCCNC(=N)N)C(=O)N[C@@H](Cc1ccc2ccccc2c1)C(=O)N[C@@H](Cc1ccc2ccccc2c1)C(=O)N[C@@H](CCCCN)C(=O)N[C@@H](CCCCN)C(=O)N[C@@H](Cc1c[nH]c2ccccc12)C(=O)N[C@@H](CCCNC(=N)N)C(=O)N[C@@H](CCCCN)C(=O)N[C@@H](Cc1c[nH]c2ccccc12)C(=O)N[C@@H](CC(C)C)C(=O)N[C@@H](C)C(=O)N[C@@H](CCCCN)C(=O)N[C@@H](CCCCN)C(N)=O [K4R2-Nal2-S1, Ac-KKKKRR-Nal-Nal-KKWRKWLAKK-NH2] (Ac-KKKKRR[2Nal][2Nal]KKWRKWLAKK-NH2)",cellular swelling (phase-contrast microscopy),PC9 cells,induced cellular swelling
same,effectiveness against bacterium,[1]; LYM broth condition,very effective
same,antimicrobial activities in high-salt conditions,[1]; addition of 100 or 200 mM NaCl,promising activities
same,caspase 3 activation (immunoblotting),caspase 3 in HFW cells,not in HFW cells
same,caspase 3 activation (immunoblotting),caspase 3 in PC9,activated caspase 3
